From patent US20070161550A1, “Antiviral compositions which inhibit paramyxovirus infection” (priority 2003, published 2007)

Assays:
RSV A2 [1] = assay: Inhibition of virus infectivity in vivo, lung virus titers in BALB/c mice; details: for reduced infectivity, fold: co-administration with RSV (Table 16); for inhibition of RSV infection in vivo (in words): BALB/c mouse model
Protocol: Inhibition of virus infectivity in vivo. […] All administrations were intranasal (0.05 ml) and performed under injected anesthesia (60 mg ketamine/kg and 2.5 mg xylazine/kg (The Butler Co.; Dublin Ohio)). Four days later the lungs were removed, homogenized, clarified by low speed centrifugation, snap frozen, and stored at −70° C. until plaque assays were performed using HEp-2 cell monolayers (Hancock et al. 1996). All animals were housed in a facility accredited by the American Association for Accreditation of Laboratory Animal Care.
(§1) Plaque assay. Virus plaques were visualized as previously described (Hancock et al. 1996) using anti-F protein (L4) mAb (Paradiso et al., 1991; Walsh and Hruska, 1983). Thereafter, cells were rinsed with blotto blocking agent (PBS, 5% powdered milk) and incubated with horseradish peroxidase-conjugated goat anti-mouse IgG (Kirkegaard and Perry Laboratories, Inc.; Gaithersburg, Md.). Bound antibody was detected using 0.05% 4-chloro-1-naphtol containing 0.1% H2O2 in PBS. After enumeration of plaques, the mean percent infectivity (±1 standard deviation of triplicate wells) was calculated relative to monolayers exposed to virus in culture medium alone without chemokine or anti-chemokine receptor antibody.

RSV A2 [2] = assay: Inhibition of RSV infectivity in vitro, plaque assay on HEp-2 cell monolayers; format: cell-based, respiratory syncytial virus (RSV); details: for effect on RSV infectivity (in words): prior exposure (1 hour) of HEp-2 cells to recombinant chemokine, up to 10 μg/ml
Protocol: Inhibition of virus infectivity in vitro. HEp-2 cell monolayers were grown in 96-well tissue culture plates (Falcon, Becton Dickson and Co.; Franklin Lakes, N.J.) with complete medium. The monolayers were pre-treated for 1 hour at 4° C. or 37° C. in triplicate wells with the indicated amounts of recombinant chemokine or anti-chemokine receptor antibody. After removal of chemokine or antibody, the monolayers were infected 1 hour at the same temperature with the denoted wild type or mutant RSV strain and then overlaid with 2% Sephadex (Amersham Biosciences; Piscataway, N.J.). Anti-viral activity was also assessed 1 hour after the cells were infected, or following simultaneous exposure of the monolayers to virus in a 1:1 mixture with the indicated doses of chemokines or CCL5 peptides. The inhibitory properties of the anti-chemokine receptor antibodies were tested alone or in combination at doses ranging from 5 to 100 μg/ml culture medium.
as §1

HEp-2 cells = assay: Binding of biotinylated CCL5 peptides to HEp-2 cell monolayers (ELISA); parameters: species or system human; details: FIG. 3, viable HEp-2 cells at 4° C.
Protocol: Interaction of CCL5 peptides with HEp-2 cells. An ELISA was used to assess the relative binding of synthetic peptides to HEp-2 cell monolayers. In brief, 96-well plates (Falcon) were seeded with 3×10^4 HEp-2 cells per well in 0.2 ml of complete medium. After overnight incubation (37° C., 5% CO2), the monolayers were cooled on ice for approximately 15 minutes. The biotinylated peptides were added to duplicate wells in ascending doses from 0.49 μg to 500 μg per ml DMEM (supplemented with 1% FBS, 2% penicillin/streptomycin, and 2 mM L-glutamine) and incubated at 4° C. for 1 hour. The monolayers were then fixed (20 minutes at RT) with 80% methanol (J T Baker; Phillipsburg, N.J.). […] Thereafter, the monolayers were incubated (1 hour at RT) with streptavidin-HRP (Zymed; San Francisco, Calif.). The wells were developed with TMB One-Step Substrate Solution (DAKO; Carpinteria, Calif.). Optical density was determined (450 nm, reference at 550 nm) with a Molecular Devices Versamax microplate reader (Sunnyvale, Calif.).

[3] = all experiments at the 500 μg/dose
[4] = Table 16 Exp. 1, 250 μg/dose, simultaneously admixed with RSV A2, four days
[5] = Table 10, 1 μg/ml, exposed 1 hour before infection, plaques after 3 days
[6] = Table 10, 5 μg/ml, exposed 1 hour before infection, plaques after 3 days
[7] = Table 10, 10 μg/ml, exposed 1 hour before infection, plaques after 3 days, relative to control wells (100%)
[8] = Table 16 Exp. 1, 500 μg/dose, simultaneously admixed with RSV A2, intranasal, lungs four days later
[9] = Table 17, 500 μg, Simultaneous with RSV A2, four days
[10] = Table 12, 10 μg/ml, 1 hour after removal of RSV A2 (POST)
[11] = Table 12, 10 μg/ml, 1 hour prior to infection (PRE)
[12] = Table 11, 1 μg/ml, exposed 1 hour before infection, plaques after 3 days
[13] = Table 11, 5 μg/ml, exposed 1 hour before infection, plaques after 3 days
[14] = Table 11, 10 μg/ml, exposed 1 hour before infection, plaques after 3 days

TPCCFAYIARPLPRA (listed as Homo sapiens) [Peptide 2, CCL5 amino acids 8-22]
average reduction in virus load (RSV A2 [1]; [3]): 0.9 log10

AHIKEYFYTSGKCSN (listed as Homo sapiens) [Peptide 4, CCL5 amino acids 22-36]
average reduction in virus load (RSV A2 [1]; [3]): 1.2 log10

EKKWVREYINSLEMS (listed as Homo sapiens) [Peptide 9, CCL5 amino acids 54-68]
RSV/Gram Lung Tissue (log10) (RSV A2 [1]; [4]): 3.7 ± 0.1 log10 | average reduction in virus load (RSV A2 [1]; [3]): 1.4 log10 | reduced infectivity, fold (RSV A2 [1]): approximately 10 fold

NC(=O)CN(CC(N)=O)S(=O)(=O)c1cccc(Nc2nc(Nc3cccc(S(=O)(=O)N(CC(N)=O)CC(N)=O)c3)nc(Nc3ccc(-c4ccc(Nc5nc(Nc6cccc(S(=O)(=O)N(CC(N)=O)CC(N)=O)c6)nc(Nc6cccc(S(=O)(=O)N(CC(N)=O)CC(N)=O)c6)n5)cc4S(=O)(=O)O)c(S(=O)(=O)O)c3)n2)c1 [RFI-641, reference compound]
inhibition of RSV infection in vivo (in words) (RSV A2 [1]): inhibitory against RSV infection | RSV/Gram Lung Tissue (log10) (RSV A2 [1]; Table 16 Exp. 1, 25 μg/dose, simultaneously admixed with RSV A2, four days): 2.7 ± 0.2 log10 | RSV/Gram Lung Tissue (log10) (RSV A2 [1]; Table 16 Exp. 2, 25 μg/dose, simultaneously admixed with RSV A2, four days): 2.7 ± 0.3 log10

PAVVFVTRKNRQVC (listed as Homo sapiens) [Peptide 6, CCL5 amino acids 37-50]
average reduction in virus load (RSV A2 [1]; [3]): 0.5 log10

CCL11: recombinant human chemokine CCL11 (eotaxin)
Percent Infectivity (RSV A2 [2]; [5]): 94.4 ± 4.8% | Percent Infectivity (RSV A2 [2]; [6]): 93.1 ± 12.7% | Percent Infectivity (RSV A2 [2]; [7]): 94.4 ± 4.8% | effect on RSV infectivity (in words) (RSV A2 [2]): did not impair RSV infectivity

CANPEKKWVREYINS (listed as Homo sapiens) [Peptide 8, CCL5 amino acids 50-64]
RSV/Gram Lung Tissue (log10) (RSV A2 [1]; [8]): 3.6 ± 0.03 log10 | average reduction in virus load (RSV A2 [1]; [3]): 1.0 log10 | reduced infectivity, fold (RSV A2 [1]): approximately 10 fold

TRKNRQVCANPEKKW (listed as Homo sapiens) [Peptide 7, CCL5 amino acids 43-57]
RSV/Gram Lung Tissue (log10) (RSV A2 [1]; [8]): 4.6 ± 0.1 log10 | RSV/Gram Lung Tissue (log10) (RSV A2 [1]; [9]): 3.8 ± 0.1 log10 | average reduction in virus load (RSV A2 [1]; [3]): 1.1 log10

SPYSSDTTPCCFAYI (listed as Homo sapiens) [Peptide 1, CCL5 amino acids 1-15]
average reduction in virus load (RSV A2 [1]; 300 μg or more, five experiments): 2.4 log10 | inhibition of RSV infection in vivo (in words) (RSV A2 [1]): most inhibitory in vivo | RSV/Gram Lung Tissue (log10) (RSV A2 [1]; Table 16 Exp. 1, 125 μg/dose, simultaneously admixed with RSV A2, four days): 4.6 ± 0.2 log10 | RSV/Gram Lung Tissue (log10) (RSV A2 [1]; [4]): 4.3 ± 0.2 log10 | RSV/Gram Lung Tissue (log10) (RSV A2 [1]; [8]): 1.8 ± 0.1 log10 | RSV/Gram Lung Tissue (log10) (RSV A2 [1]; Table 16 Exp. 2, 300 μg/dose, simultaneously admixed with RSV A2, four days): 4.0 ± 0.1 log10 | RSV/Gram Lung Tissue (log10) (RSV A2 [1]; Table 16 Exp. 2, 400 μg/dose, simultaneously admixed with RSV A2, four days): 3.8 ± 0.1 log10 | RSV/Gram Lung Tissue (log10) (RSV A2 [1]; Table 16 Exp. 2, 500 μg/dose, simultaneously admixed with RSV A2, four days): 3.1 ± 0.1 log10 | RSV/Gram Lung Tissue (log10) (RSV A2 [1]; Table 17, 500 μg, 1 hour after infection (Post), four days): 5.3 ± 0.2 log10 | RSV/Gram Lung Tissue (log10) (RSV A2 [1]; Table 17, 500 μg, 1 hour before infection (Pre), four days): 3.5 ± 0.6 log10 | RSV/Gram Lung Tissue (log10) (RSV A2 [1]; [9]): 1.9 ± 0.2 log10 | virus load diminished, fold (RSV A2 [1]; administered 1 hour before infection): more than 50 fold | binding to the epithelial cell monolayer (in words) (HEp-2 cells): readily bound to the epithelial cell monolayer

B1: CCL15: recombinant human chemokine CCL15 (MIP-1δ) (protein, UniProt Q16663 22-113, looked up)
C-C motif chemokine 15: QFTNDAETELMMSKLPLENPVVLNSFHFAADCCTSYISQSIPCSLMKSYFETSSECSKPGVIFLTKKGRQVCAKPSGPGVQDCMKKLKPYSI
Percent Infectivity (RSV A2 [2]; [10]): 93 ± 4% | Percent Infectivity (RSV A2 [2]; [11]): 97 ± 8% | effect on RSV infectivity (in words) (RSV A2 [2]): did not impair RSV infectivity

B2: CCL8: recombinant human chemokine CCL8 (MCP-2) (protein, UniProt P80075 24-99, looked up)
C-C motif chemokine 8: QPDSVSIPITCCFNVINRKIPIQRLESYTRITNIQCPKEAVIFKTKRGKEVCADPKERWVRDSMKHLDQIFQNLKP
Percent Infectivity (RSV A2 [2]; [5]): 88.9 ± 6.4% | Percent Infectivity (RSV A2 [2]; [6]): 100.0 ± 0.0% | Percent Infectivity (RSV A2 [2]; [7]): 94.4 ± 10.5% | effect on RSV infectivity (in words) (RSV A2 [2]): did not impair RSV infectivity

B3: CCL3: recombinant human chemokine CCL3 (MIP-1α) (protein, UniProt P10147 24-92, looked up)
C-C motif chemokine 3: SLAADTPTACCFSYTSRQIPQNFIADYFETSSQCSKPGVIFLTKRSRQVCADPSEEWVQKYVSDLELSA
Percent Infectivity (RSV A2 [2]; [5]): 95.8 ± 11.0% | Percent Infectivity (RSV A2 [2]; [6]): 97.2 ± 8.7% | Percent Infectivity (RSV A2 [2]; [7]): 86.1 ± 2.4% | Percent Infectivity (RSV A2 [2]; [12]): 103.0 ± 3.0% | Percent Infectivity (RSV A2 [2]; [13]): 98.0 ± 1.0% | Percent Infectivity (RSV A2 [2]; [14]): 91.0 ± 5.0% | Percent Infectivity (RSV A2 [2]; [10]): 104 ± 7% | Percent Infectivity (RSV A2 [2]; [11]): 91 ± 10% | effect on RSV infectivity (in words) (RSV A2 [2]): did not impair infectivity

B4: CCL4: recombinant human chemokine CCL4 (MIP-1β) (protein, UniProt P13236 24-92, looked up)
C-C motif chemokine 4: APMGSDPPTACCFSYTARKLPRNFVVDYYETSSLCSQPAVVFQTKRSKQVCADPSESWVQEYVYDLELN
Percent Infectivity (RSV A2 [2]; [12]): 104.0 ± 4.0% | Percent Infectivity (RSV A2 [2]; [13]): 99.0 ± 9.0% | Percent Infectivity (RSV A2 [2]; [14]): 98.0 ± 5.0% | effect on RSV infectivity (in words) (RSV A2 [2]): did not impair infectivity
